For data set [1] the following is noted: cited from earlier work.
Data set [2] is described as follows: Proof-of-concept mouse PK study, plasma levels of GEM-IB and metabolites by HPLC-MS/MS. Type of data set: in vivo, mice. The following applies: for Cmax: analyte = parent or metabolite; for AUC: over the observation period. The procedure:
Assay A (GEM-IB and IB): The extraction of calibration standards, quality control samples, and PK study samples was identical. Plasma, quality control stocks, and calibrator stocks were removed from the storage freezer and kept at room temperature until fully thawed. Aliquots of 100 μL of standards/quality control or blank sample were transferred into a 1.5 mL low-binding polypropylene vial with a conical bottom and snap-on lid. An amount of 10 µL of the of the internal standard solution (15 and 10 µg/mL of IB-D3 and ATP-IS, respectively) was added and mixed. For protein precipitation, 50 μL of methanol was added and then samples were vortexed for 10 min. This was followed by centrifugation at 25,000× g for ten minutes at 4 °C (Thermo Scientific MR 23i Centrifuge, Thermo Scientific, Waltham, MA, USA). To remove remaining protein, the supernatant was transferred to 10,000 molecular weight cut off (MWCO) centrifugal filters (800 µL volume, PES 10,000 with 2.0 mL receiver tubes, Analytical Sales and Services, Flanders, NJ, USA) and centrifuged again at 25,000× g for ten minutes at 4 °C. The filtrate was transferred into HPLC vials and placed into the HPLC autosampler maintained at 4 °C.
Assay B (GEMMP, GEM dFdUMP and dFdU): The extraction of calibration standards and quality control samples was identical to that of study samples. An amount of 200 µL of plasma sample was added to a 1.5 mL snap-top Eppendorf tube with 100 µL of protein precipitation solution. The samples were then vortexed for five minutes followed by centrifugation at 25,000× g for ten minutes at 4 °C. Hereafter, supernatants were transferred to 10K Amicon centrifugal filters (Merck-Millipore, Burlington, MA, USA) and centrifuged at the same settings for 60 min. The filtrates were then transferred into HPLC vials for analysis.
Assay A (GEM-IB and IB): Quantification of the analytes was carried out using high-performance liquid chromatography–tandem mass spectrometry (HPLC-MS/MS). Chromatography was performed using an Agilent 1260 Infinity II bio-inert HPLC system (Agilent Technologies, Santa Clara, CA, USA) on a Hypercarb Porous Graphitic Carbon HPLC column (3 µm, 2.1 × 50 mm, Thermo Scientific, Waltham, MA, USA). The HPLC system consisted of an Agilent 1260 Infinity II bio-inert quaternary pump, an Agilent 1260 Infinity II bio-inert column oven, and an Agilent 1260 Infinity II bio-inert autosampler (Agilent Technologies, Santa Clara, CA, USA). An amount of 10 µL of the sample extracts was injected. The column was maintained at 22 °C. HPLC-MS-grade water supplemented with 10 mM hexafluoroisopropanol (HFIP) and 0.05% (v/v) diethyl amine (DEA) at pH 9.4 was used for the aqueous mobile phase (Buffer A) and HPLC-grade acetonitrile was used for the organic mobile phase (Buffer B). The flow rate was set to 400 µL/min throughout the assay. The initial settings were 98% Buffer A and 2% organic Buffer B for the first two minutes. During the following 0.7 min, the organic Buffer B was increased to 30%. At minute 3.5, the gradient reached 98% Buffer B, which was kept for 0.5 min, and at minute 4.2 the column was re-equilibrated to starting conditions for 2.8 min until the next injection. The HPLC system was connected to a Sciex a 5500+ triple quadrupole mass spectrometer (SCIEX, Concord, ON, Canada) via a turbo electrospray ionization source (SCIEX) operated in the negative electrospray ionization (ESI) mode. Data were acquired in negative multiple reaction monitoring (MRM) mode and all compounds were detected as [M–H ]^−. The ion transitions used during the multiple reaction monitoring mode were m/z = 318→236, 321→239, 643→342, and 521→79 for IB, IB-D3, GEM-IB, and adenosine-^13C10,^15N5 5′-triphosphate (^13C10-^15N5-ATP), respectively. The dwell time for analysis was set to 50 ms. The curtain gas was kept at 20 psi and the ion source gas at 55 psi. The ion spray voltage was −4500 volts, and the temperature of the ion source was set to 400 °C. […]

On the set-up of data set [3]: method as in PMID 33744463. The following applies: (enriched) mouse plasma; cited from earlier work.
On the set-up of data set [4]: method as in PMID 36571444, PMID 24131140, PMID 21561347. To be noted: cancer patients; cited from earlier work.
A short description of data set [5]: Stability in mouse plasma (accelerated, freeze-thaw, frozen PK samples). It is filed as in vitro ADME. The following applies: mouse plasma PK samples re-extracted after 2.5 years at <−70 °C.
A short description of data set [6]: Stability in dog plasma (accelerated, freeze-thaw, frozen PK samples). It is filed as in vitro ADME. To be noted: dog plasma PK samples re-extracted after 2.5 years at <−70 °C.
[7] abbreviates: ip, after GEM-IB 5 mg/kg i.p., read-out: Tmax.
Where [8] appears, read: mouse, plasma, ip, 5 mg/kg, after GEM-IB 5 mg/kg i.p., read-out: AUC.
Where [9] appears, read: mouse, plasma, ip, 5 mg/kg, after GEM-IB 5 mg/kg i.p., read-out: T1/2 (converted).
The mark [10] stands for this setting: mouse, plasma, ip, 5 mg/kg, after i.p. injection of GEM-IB 5 mg/kg, read-out: half-life.

Where two headings read alike, the source gives them in different places.

The term Tmax denotes the time at which the peak concentration occurs. The term Cmax denotes the highest concentration seen after dosing. For `Nc1ccn([C@@H]2O[C@H](CO)[C@@H](O)C2(F)F)c(=O)n1` [GEM, gemcitabine], the “duration stable in human plasma” value in data set [1] (−70 °C) is “up to 30 days”. Moreover, in data set [2] (after GEM-IB 5 mg/kg i.p.), the “Rate Constant” value was determined as 1.5 h⁻¹, the T1/2 is 26.9 min and the Tmax came out at 4.98 min. In addition, the Cmax in data set [2] (ip, after GEM-IB 5 mg/kg i.p.) was 2120 ng/mL. In addition, the “duration stable in mouse plasma” value in data set [3] is “up to 42 days”. Also, the “fatal treatment-related events, share of patients” value in data set [4] is <1% to 4.

A word on the AUC: it is the area under the concentration-time curve, a measure of exposure. Take `CCCCCN(C)CCC(O)(P(=O)(O)O)P(=O)(O)OP(=O)(O)OC[C@H]1O[C@@H](n2ccc(N)nc2=O)C(F)(F)[C@@H]1O` (some centres unmarked) [GEM-IB]: in data set [2] (after GEM-IB 5 mg/kg i.p.), the CL was found to be 65.65 mL/min/kg, the “Rate Constant” value amounted to 5.0 h⁻¹ and the Vdss was determined as 0.469 L/kg. In addition, the Cmax in data set [2] (ip, after GEM-IB 5 mg/kg i.p.) came to 4180 ng/mL. For the same compound, in data set [2] (setting [7]), the Tmax came out at 4.98 min. The AUC in data set [2] (setting [8]) worked out at 1280 ng·h/mL. In data set [2] (setting [9]), the half-life was 8.28 min. The half-life in data set [2] (setting [10]) is 8 min.

On to `Nc1ccn([C@@H]2O[C@H](COP(=O)(O)O)[C@@H](O)C2(F)F)c(=O)n1` [GEMMP, gemcitabine-5′-phosphate], for which the “%-ACC, frozen PK sample stability” value in data set [5] was determined as 64.0%; in data set [6] it was 58.1%. The “Rate Constant” value in data set [2] (after GEM-IB 5 mg/kg i.p.) turned out to be 4.0 h⁻¹. For the same compound, in data set [2] (ip, after GEM-IB 5 mg/kg i.p.), the Cmax is 1310 ng/mL. In addition, the time of peak concentration (Tmax) in data set [2] (setting [7]) amounted to 4.98 min. The AUC in data set [2] (setting [8]) was found to be 405 ng·h/mL. Also, in data set [2] (setting [9]), the half-life is 10.3 min.

As for `CCCCCN(C)CCC(O)(P(=O)(O)O)P(=O)(O)O` [IB, ibandronate], the “duration stable in human plasma” value in data set [1] (−20 °C) is given as “up to 4 months”. Moreover, the “Rate Constant” value in data set [2] (after GEM-IB 5 mg/kg i.p.) was found to be 2.6 h⁻¹. The Cmax in data set [2] (ip, after GEM-IB 5 mg/kg i.p.) stood at 22800 ng/mL. In addition, the Tmax in data set [2] (setting [7]) was found to be 4.98 min. For the same compound, in data set [2] (setting [8]), the AUC was 10700 ng·h/mL. Moreover, the values for the half-life in data set [2] (setting [9]) and in data set [2] (setting [10]) were 16.1 min and 16 min, respectively.

For `O=c1ccn([C@@H]2O[C@H](CO)[C@@H](O)C2(F)F)c(=O)[nH]1` [dFdU, 2′,2′-difluoro-2′-deoxyuridine], the results for the “%-ACC, frozen PK sample stability” value in data set [5] and in data set [6] were 71.5% and 63.4%, respectively. Also, the “Rate Constant” value in data set [2] (after GEM-IB 5 mg/kg i.p.) was found to be 0.4 h⁻¹. For the same compound, the Cmax in data set [2] (ip, after GEM-IB 5 mg/kg i.p.) is 832 ng/mL. In addition, the Tmax in data set [2] (setting [7]) stood at 60 min. In data set [2] (setting [9]), the half-life is 108 min. Besides, in data set [3], the “duration stable in mouse plasma” value was “up to 42 days”.

As to `O=c1ccn([C@@H]2O[C@H](COP(=O)(O)O)[C@@H](O)C2(F)F)c(=O)[nH]1` [dFdUMP, 2′,2′-difluoro-2′-deoxyuridine-5′-phosphate], the “%-ACC, frozen PK sample stability” value worked out at 108.1% in data set [5] and 49.3% in data set [6]. Also, in data set [2] (after GEM-IB 5 mg/kg i.p.), the “Rate Constant” value was 11.1 h⁻¹. Also, the AUC was 38 ng·h/mL in data set [2] (after GEM-IB 5 mg/kg i.p.) and 3389 ng·h/mL in data set [2] (after GEM-IB 5 mg/kg i.p., listed as dFdU-MP). Also, the peak concentration (Cmax) in data set [2] (ip, after GEM-IB 5 mg/kg i.p.) amounted to 130 ng/mL. Further, the time to peak (Tmax) in data set [2] (setting [7]) is 4.98 min. For the same compound, the half-life in data set [2] (setting [9]) is 3.78 min.

The values above are taken from paper PMC11767451, “Novel Approaches to Monitor Pharmacokinetics and Metabolism of Gemcitabine-Ibandronate Conjugate in Mice and Dogs” (Molecules, 2025).
